“Also recorded” adds a separate entry of the source.
Columns and labels:
[1] = system: HCT116 colon carcinoma cells; assay: Screening for apoptosis inducers effective under hypoxia (MTT cytotoxicity, hypoxia vs normoxia); type: cell-based
Description: FIG. 1. Discovery of compound AP-III-a4 (ENOblock). (a) Schematic of the screening system used to detect apoptosis inducers effective under hypoxia. HCT116 cancer cells were seeded in parallel 96-well culture plates. Hypoxia was induced in one plate using 150 μM cobalt chloride treatment. Triazine library compound at 5 μM concentration was added 4 h later, and cell death was determined 24 h after hypoxia induction. […] (b) Chemical structures of AP-III-a4 (ENOblock) and the control compounds, AP-IV-e3 and AP-I-f10. Chemical structures of GAPDS, which targets glyceraldehyde 3-phosphate dehydrogenase (GAPDH), and rosiglitazone, a well-known anti-diabetes drug, are also shown. […] Error=SD; *=P value<0.05 for increased cell death compared to normoxia. P value: hypox 10=1.23×10^−6; hypox 5=2.38×10^−6; hypox 2.5=1.16×10^−5; hypox 1.25=0.000334. (d) Representative phase contrast microscopic images of HCT116 colon cancer cells treated with ENOblock under normoxia or hypoxia.
HCT116 colon carcinoma cells were seeded in 2 sets of 96 well plates at a density of 5×10^3 cells per well. ‘Low glucose’ DMEM (containing 5 mM glucose; Invitrogen, OR, USA) was used for screening, because glycolysis inhibitors, such as 2-Deoxy-D-glucose (2-DG), are effective by competing with glucose. 24 h later, the hypoxic condition was induced in one set of 96 well plates by treatment with 150 μM of 0.22 μm filtered CoCl2 and the culture media volume was reduced by 50% (to 100 μL/well), as previously described.^49 4 h later, test compounds from a tagged triazine library^5 were screened at a concentration of 5 μM in duplicate wells. Cytotoxicity was determined by MTT assay 24 h after adding drug. ‘Hits’ for further analysis were classified as compounds that 25% or higher cytotoxicity in the hypoxia condition compared to the normoxia condition (as measured by MTT assay absorbance). 50 μM 2-DG, an inhibitor of glycolysis that selectively kills cancer cells in hypoxic conditions^50, was used as a positive control.
We developed a novel, dual screening system to identify molecules that preferentially kill cancer cells in a hypoxic environment (FIG. 1). A small molecule library of 384 triazines prepared on a solid support5 (5; FIG. 3) was screened. A “hit” molecule was defined as an inducer of at least 25% increased cancer cell toxicity in hypoxia compared to normoxia (as determined using the 3-(4,5-dimethylthiazol-2-yl)-2,5-diphenyltetrazolium bromide, a tetrazole (MTT) assay). Five from 384 triazines screened produced greater cancer cell toxicity under hypoxia.

HCT116 cancer cells [2] = assay: Cancer cell migration (transwell inserts, crystal violet); type: cell-based; conditions: HCT116, normoxia
Description: (§1) FIG. 7. […] (b) Microscopic images of crystal violet stained HCT116 cells invaded onto the transwell inserts (scale bar=100 μm). […] (d) Microscopic images of crystal violet stained HCT116 cells migrated onto the transwell inserts (scale bar=100 μm). […] Cells were treated with 10 nM taxol and 10 nM vincristine, with or without 10 μM ENOblock. Error=SD; *=P<0.05 between the groups indicated on the graph. […] For the AKT Western blot, cells were treated with ENOblock for 24 h; for the Bcl-Xl Western blot, cells were treated with ENOblock for 48 h.

HCT116 cancer cells [3] = assay: Sensitivity to antitubulin chemotherapeutics taxol and vincristine; type: cell-based; conditions: 10 nM taxol or 10 nM vincristine with or without 10 μM ENOblock
Description: as §1

zebrafish larvae [4] = assay: Toxicological analysis using the zebrafish larvae system; type: in vivo, zebrafish (Danio rerio); conditions: for microscopic assessment of larvae morphology: 72 days post fertilization (dfp) zebrafish larvae
Description: FIG. 9. Toxicological study of ENOblock and in vivo analysis of anticancer activity. (A) Toxicological analysis of ENOblock treatment using the zebrafish larvae system. […] (B) Microscopic assessment of […] post fertilization (dfp) zebrafish larvae exposed to increasing doses of ENOblock. […] Error=SD; *=P<0.05 compared to the DMSO treated group. P value: 20 μM ENOblock=0.0121; 40 μM ENOblock=0.0019. […] DMSO treatment served as a control. Three representative embryos are shown from each experimental group, and distributed cancer cell foci are designated with blue arrows. […] Error=SD; *=P<0.05 compared to the DMSO-treated group.
The zebrafish (Danio rerio) cancer cell xenograft model is gaining increasing research prominence as a validated, convenient tool for testing candidate cancer drugs in vivo.^10,11 In addition, zebrafish is a relevant vertebrate platform for predicting toxicological effects in mammals.^12 We observed that 10 μM ENOblock treatment of developing zebrafish larvae was nontoxic (FIG. 9a-9c).

[5] = system: phosphoenolpyruvate carboxykinase (PEPCK) expression in Huh7 hepatocytes; assay: PEPCK expression in hepatocytes; type: cell-based; conditions: 10 μM, 24 h
Text: (§2) FIG. 10. […] Error=SD; *=P<0.05 compared to the no drug (DMSO-treated) group. […] Error=SD; *=P<0.05 for reduced PEPCK expression compared to the no drug (DMSO-treated) group.

[6] = system: glucose 6-phosphatase (G6 Pase) expression in hepatocytes; assay: G6 Pase expression in hepatocytes; type: cell-based; conditions: 10 μM, 24 h
Text: as §2

zebrafish larvae [7] = assay: Measurement of glucose uptake in zebrafish (2-NBDG); type: in vivo; design: 2-NBDG signal in lysed larvae (fluorescent plate reader): dose or concentration left out as unconfirmed
Description: FIG. 12. […] (a) Schematic of our approach to measure the effect of ENOblock treatment on […] in zebrafish.
At 72 hpf, larvae were placed into a 96-well plate (6 eggs/well in 200 μL E3 water supplemented with 0.2 mM 2-phenylthiourea; Sigma). Drug of interest was added for […]. The solution was then replaced with E3 water supplemented with 600 μM 2-NBDG and incubated for 3 h. The larva were washed with E3 water and anesthetized with 0.02% tricaine-supplemented E3 water. One larva was then placed on a chamber slide, containing 3% methylcellulose in E3 water, for fluorescent microscopy (Leica DM2500 microscope equipped with a DFC425 C digital camera). Images were captured at 50× magnification. The remaining 5 larvae where lysed with 120 μL of CelLytic M solution (Sigma-Aldrich) and sonication (4° C., 10″/5″ pulse, 10 min). Lysed larvae were centrifuged at 10000 rpm for 10 min. 100 μL of the supernatant was transferred to a 96-well plate and fluorescence was measured with a fluorescent microplate reader (SpectraMAX Gemini XS, Molecular Devices; λex=466 nm […]).

[8] = system: PEPCK expression in adult zebrafish liver; assay: PEPCK expression in adult zebrafish liver; conditions: 10 μM, 3 h

## NCCOCCOCCNC(=O)Cc1ccc(Nc2nc(NCc3ccc(F)cc3)nc(NCC3CCCCC3)n2)cc1 [ENOblock]
[1]; FIG. 1c-1d
  cell viability of cancer cells cultured under hypoxia: reduced cell viability dose-dependently
[1]; HCT116, 5 μM compound, 24 h, MTT
  hit classification in triazine library screen (25% or greater cell death under hypoxia compared to normoxia): best performing hit molecule
[1]; HCT116, hypoxia by 150 μM cobalt chloride, MTT, FIG. 1c
  cell death in hypoxic conditions compared to normoxia: higher levels of HCT116 colon cancer cell death in hypoxic conditions (Hypox) compared to normoxia
[1]; under hypoxia
  trypan blue uptake (cell death): increased trypan blue uptake under hypoxia
HCT116 cancer cells [2]
  cancer cell migration: inhibited cell migration dose-dependently
  inhibition of cell migration compared with LY294002: more effective than LY294002 at inhibiting cell migration
HCT116 cancer cells [3]
  sensitivity to taxol and vincristine (cytotoxicity): increased sensitivity to the antitubulin chemotherapeutics taxol and vincristine
Zebrafish larvae [4]; 10 μM
  overall zebrafish larvae viability: did not affect viability
Zebrafish larvae [4]; 20 μM
  overall zebrafish larvae viability: reduced overall zebrafish larvae viability
  microscopic assessment of larvae morphology: produced an abnormally large swim bladder
Zebrafish larvae [4]; 40 μM
  overall zebrafish larvae viability: reduced overall zebrafish larvae viability
  microscopic assessment of larvae morphology: produced multiple abnormalities in the larvae
Zebrafish larvae [4]; zebrafish larvae, 10 μM
  toxicity / tolerability (developmental parameters): could be tolerated by the larvae; also recorded: nontoxic
Zebrafish larvae [4]; zebrafish larvae, 20 μM
  ability to swim: inhibited the ability to swim
[5]
  PEPCK expression: inhibited expression of PEPCK
[6]
  glucose 6-phosphatase (G6 Pase) expression: did not affect expression of the enzymes
Zebrafish larvae [7]; 10 μM, 4 h
  glucose uptake in larvae (2-NBDG fluorescence microscopy): increased glucose uptake in the zebrafish larvae
Zebrafish larvae [7]; 72 hpf larvae, 10 μM, 4 h, vs 2-NBDG alone
  2-NBDG fluorescence signal intensity in the eye: induced significantly greater fluorescent tagged glucose uptake in the zebrafish eye
Zebrafish larvae [7]; 72 hpf zebrafish
  2-NBDG signal in lysed larvae (fluorescent plate reader): induced glucose uptake
[8]
  hepatic PEPCK expression in vivo: inhibited PEPCK expression in adult zebrafish liver

From patent publication US9364480B2, “Pharmaceutical composition for preventing or treating cancer, containing enoblock as active ingredient” (GWANGJU INSTITUTE OF SCIENCE AND TECHNOLOGY, priority 2012, dated 2016)
